Among the data in US20250188040A1, “PHARMACEUTICAL COMPOSITIONS COMPRISING WRN HELICASE INHIBITORS” (Vividion Therapeutics, Inc., priority 2022, published 2025) are GI50 and IC50 values, retold here.

The GI50 is the concentration giving 50% growth inhibition.

Like-named read-outs stand apart in the source and are kept apart here.

One test has as its system SW480 cells. Briefly: Cell growth assay (CellTiter-Glo 2.0), SW480 MSS cell line. The following applies: Homo sapiens, SW480, 120 h, read-out: Cell Growth Inhibition GI50 SW480. Background: Cellular ATP, detected with luciferase, serves as a proxy for viable cell number.
Test [1] concerns the target hWRN(519-1227)_C-H3CV-GFP-10His (Homo sapiens, UniProt Q14191). Kind of test: Helicase Assay for WRN Inhibition (ATP-dependent, fluorescence based).
A further test deals with HCT 116 cells. Briefly: Cell growth assay (CellTiter-Glo 2.0), HCT 116 MSI-H cell line. The following applies: Homo sapiens, HCT-116, 120 h, read-out: Cell Growth Inhibition GI50 HCT-116.
Another test addresses T1, WRN C727 (Homo sapiens, UniProt Q14191).
T1 construct: endogenous in cells; host or cells: OCI-AML2
Briefly: Target engagement, in vitro (lysate), OCI-AML2. Type of test: binding. The settings on record: read-out: OCI-AML2 WRN C727 TE50 in vitro (lysate). In a few lines:
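Percent engagement of WRN C727 is expressed against DMSO-treated samples, measured by PRM mass spectrometry of streptavidin-enriched, probe-tagged tryptic peptides. Compound dose responses preceded probe labelling of solvent-exposed cysteines, in either living OCI-AML2 cells or their lysates.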

Setting [2] is: WRN Helicase IC50, 30 min preincubation with ATP, 30 min reaction.

Sequence of hWRN(519-1227)_C-H3CV-GFP-10His (Q14191 519-1227): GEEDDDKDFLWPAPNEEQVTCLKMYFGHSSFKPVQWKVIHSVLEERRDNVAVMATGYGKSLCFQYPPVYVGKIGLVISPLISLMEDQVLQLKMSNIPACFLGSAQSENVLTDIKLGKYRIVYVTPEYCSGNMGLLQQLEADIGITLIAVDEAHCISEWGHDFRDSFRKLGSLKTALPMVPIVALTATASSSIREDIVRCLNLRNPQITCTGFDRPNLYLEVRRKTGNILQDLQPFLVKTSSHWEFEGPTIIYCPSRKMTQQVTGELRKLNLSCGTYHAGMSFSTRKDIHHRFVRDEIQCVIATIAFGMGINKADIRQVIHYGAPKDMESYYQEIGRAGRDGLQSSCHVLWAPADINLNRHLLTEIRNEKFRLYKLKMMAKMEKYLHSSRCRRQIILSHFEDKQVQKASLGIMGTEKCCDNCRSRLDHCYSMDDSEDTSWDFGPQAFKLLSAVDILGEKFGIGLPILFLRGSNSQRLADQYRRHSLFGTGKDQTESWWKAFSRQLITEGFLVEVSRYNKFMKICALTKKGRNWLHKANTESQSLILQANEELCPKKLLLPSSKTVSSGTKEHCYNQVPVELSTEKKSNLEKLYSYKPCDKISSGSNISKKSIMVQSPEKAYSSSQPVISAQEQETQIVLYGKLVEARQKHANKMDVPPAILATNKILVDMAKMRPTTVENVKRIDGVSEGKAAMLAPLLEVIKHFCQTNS
T1 sequence (Q14191 whole entry): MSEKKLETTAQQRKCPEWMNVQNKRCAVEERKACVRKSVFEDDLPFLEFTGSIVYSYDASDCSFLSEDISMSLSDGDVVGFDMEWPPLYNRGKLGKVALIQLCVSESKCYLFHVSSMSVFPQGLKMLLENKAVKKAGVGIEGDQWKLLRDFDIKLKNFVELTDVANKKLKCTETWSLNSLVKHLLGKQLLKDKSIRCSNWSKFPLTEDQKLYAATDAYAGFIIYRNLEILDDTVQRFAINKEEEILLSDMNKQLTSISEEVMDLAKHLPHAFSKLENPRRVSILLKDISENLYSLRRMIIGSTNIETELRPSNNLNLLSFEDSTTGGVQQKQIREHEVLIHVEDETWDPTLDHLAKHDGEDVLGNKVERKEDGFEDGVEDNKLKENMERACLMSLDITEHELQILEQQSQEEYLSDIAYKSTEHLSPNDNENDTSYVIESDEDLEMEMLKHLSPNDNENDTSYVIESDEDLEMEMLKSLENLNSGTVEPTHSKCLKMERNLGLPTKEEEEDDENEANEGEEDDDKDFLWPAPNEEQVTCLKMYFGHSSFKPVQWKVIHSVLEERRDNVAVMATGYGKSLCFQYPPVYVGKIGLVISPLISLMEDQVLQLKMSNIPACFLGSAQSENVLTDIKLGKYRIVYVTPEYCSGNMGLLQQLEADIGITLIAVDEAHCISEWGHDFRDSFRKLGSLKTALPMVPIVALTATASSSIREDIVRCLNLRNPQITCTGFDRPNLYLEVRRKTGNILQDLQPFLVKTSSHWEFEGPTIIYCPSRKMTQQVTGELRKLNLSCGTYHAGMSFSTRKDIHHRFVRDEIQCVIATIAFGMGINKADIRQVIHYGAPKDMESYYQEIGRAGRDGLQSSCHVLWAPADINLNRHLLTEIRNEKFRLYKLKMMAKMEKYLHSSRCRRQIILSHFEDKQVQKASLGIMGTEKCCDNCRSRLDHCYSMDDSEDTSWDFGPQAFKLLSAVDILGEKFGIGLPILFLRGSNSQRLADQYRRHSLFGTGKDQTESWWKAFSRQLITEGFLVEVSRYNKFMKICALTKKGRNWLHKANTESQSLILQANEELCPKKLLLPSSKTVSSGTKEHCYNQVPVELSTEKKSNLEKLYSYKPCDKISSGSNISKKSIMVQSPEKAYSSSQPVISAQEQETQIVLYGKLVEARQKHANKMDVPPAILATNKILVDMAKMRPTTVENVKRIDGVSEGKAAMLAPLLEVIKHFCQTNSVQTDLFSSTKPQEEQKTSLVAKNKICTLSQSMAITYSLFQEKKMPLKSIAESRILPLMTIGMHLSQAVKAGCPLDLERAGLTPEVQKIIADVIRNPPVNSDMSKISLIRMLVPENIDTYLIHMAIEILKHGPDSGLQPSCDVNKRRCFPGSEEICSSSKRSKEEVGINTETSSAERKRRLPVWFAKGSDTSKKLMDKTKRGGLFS
Method for HCT 116 cells: (§1) The effects of compound on cellular viability were determined using the CellTiter-Glo® 2.0 Luminescent Cell Viability Assay (Promega, Madison, WI).
(§2) SW480 cells were seeded at 1,000 cells per well in Eagle's Minimum Essential Medium (EMEM) with 10% FBS. Both cell lines were seeded in a volume of 50 μL medium per well. […] The concentration range was adjusted as needed for compounds of different potencies. The cells treated with compounds were incubated for 5 days at 37° C. in 5% CO2. […] The plate was then read on a Clariostar plate reader (BMG Labtech, Cary, NC) in luminescence mode. The previously measured baseline cell viability was subtracted from the luminescence value of each well, and cell viability (% of DMSO) was plotted as a function of log compound concentration. The EC50 was then calculated for each compound using Dotmatics Software (San Diego, CA).
Method for SW480 cells: as §1, §2

With `CO[C@H](C)[C@@H](/C=C/S(C)(=O)=O)NC(=O)c1cnc(C(C)(C)C)nc1Oc1ccccc1` [Example 69, 2-(tert-butyl)-N-((3R,4R,E)-4-methoxy-1-(methylsulfonyl)pent-1-en-3-yl)-4-phenoxypyrimidine-5-carboxamide], the values for the GI50 in the test with SW480 cells and with HCT 116 cells were 51600 nM and 1220 nM, respectively. Moreover, the IC50 in test [1] (setting [2]) came out at 3390 nM; on WRN C727, 11000 nM.

As to `CS(=O)(=O)/C=C/[C@@H](NC(=O)c1cnc(C2CCCC2)nc1Oc1ccccc1)C1CC1` [Example 8, (S,E)-2-cyclopentyl-N-(1-cyclopropyl-3-(methylsulfonyl)allyl)-4-phenoxypyrimidine-5-carboxamide], the results for the concentration for 50% growth inhibition (GI50) with SW480 cells and with HCT 116 cells were 6720 nM and 44 nM, respectively. Further, the figures for the IC50 (in test [1] (setting [2]); at WRN C727) were 75.8 nM and 195 nM, respectively.

For `C[C@@H](/C=C/S(C)(=O)=O)NC(=O)c1cnc(C2CC(F)(F)C2)nc1Oc1ccccc1` [Example 103, (S,E)-2-(3,3-difluorocyclobutyl)-N-(4-(methylsulfonyl)but-3-en-2-yl)-4-phenoxypyrimidine-5-carboxamide], the concentration for 50% growth inhibition (GI50) with SW480 cells was determined as 20400 nM; with HCT 116 cells it was 359 nM. For the same molecule, the values for the IC50 (in test [1] (setting [2]); on WRN C727) were 1500 nM and 3430 nM, respectively.

On to `C=C(C#N)CNC(=O)c1cnc(C2CC2)nc1Oc1ccccc1` [Example 269, N-(2-cyanoallyl)-2-cyclopropyl-4-phenoxypyrimidine-5-carboxamide], for which the results for the 50% growth inhibitory concentration (GI50) in the test with SW480 cells and with HCT 116 cells were 17900 nM and 3300 nM, respectively. Further, the IC50 is 6100 nM in test [1] and 25000 nM at WRN C727.

Consider `COC[C@@H](/C=C/S(C)(=O)=O)NC(=O)c1cnc(C(C)(C)C)nc1Oc1ccccc1` [Example 63, (R,E)-2-(tert-butyl)-N-(1-methoxy-4-(methylsulfonyl)but-3-en-2-yl)-4-phenoxypyrimidine-5-carboxamide], for which the GI50 in the test on SW480 cells turned out to be 31000 nM; with HCT 116 cells, 30.6 nM. In addition, the IC50 in test [1] (setting [2]) amounted to 87.9 nM; on WRN C727, 500 nM.

`CSC[C@@H](/C=C/S(C)(=O)=O)NC(=O)c1cnc(C(C)(C)C)nc1Oc1ccccc1` [Example 68, (R,E)-2-(tert-butyl)-N-(4-(methylsulfonyl)-1-(methylthio)but-3-en-2-yl)-4-phenoxypyrimidine-5-carboxamide]: the 50% growth inhibitory concentration (GI50) worked out at 31400 nM with SW480 cells and 230 nM in the test with HCT 116 cells. Also, the figures for the IC50 (in test [1] (setting [2]); on WRN C727) were 180 nM and 1000 nM, respectively.

As to `C[C@@H](/C=C/S(C)(=O)=O)NC(=O)c1cnc([C@H]2C[C@H](C)C2)nc1Oc1ccccc1` (single isomer, unassigned) [Example 47], the concentration for 50% growth inhibition (GI50) with SW480 cells is more than 12600 nM; with HCT 116 cells, 292 nM. Moreover, the IC50 in test [1] (setting [2]) amounted to 770 nM; on WRN C727, 990 nM.

Take `CO[C@@H](C)[C@@H](/C=C/S(C)(=O)=O)NC(=O)c1cnc(C(C)(F)F)nc1Oc1ccccc1` [Example 93, 2-(1,1-difluoroethyl)-N-((3R,4S,E)-4-methoxy-1-(methylsulfonyl)pent-1-en-3-yl)-4-phenoxypyrimidine-5-carboxamide]: the results for the GI50 in the test on SW480 cells and with HCT 116 cells were 87500 nM and 128 nM, respectively. For the same molecule, the IC50 in test [1] (setting [2]) was 460 nM; on WRN C727 it was 4190 nM.

For the molecule `COC[C@@H](/C=C/S(C)(=O)=O)NC(=O)c1cnc(C(F)(F)C(F)(F)F)nc1Oc1ccccc1` [Example 85, (R,E)-N-(1-methoxy-4-(methylsulfonyl)but-3-en-2-yl)-2-(perfluoroethyl)-4-phenoxypyrimidine-5-carboxamide], the concentration for 50% growth inhibition (GI50) with SW480 cells worked out at 11500 nM; in the test with HCT 116 cells it was 48.4 nM. The figures for the IC50 (in test [1] (setting [2]); at WRN C727) were 120 nM and 220 nM, respectively.

Turning to `C[C@@H](/C=C/S(C)(=O)=O)NC(=O)c1cnc(C2CCCC2)nc1Oc1ccc(C#N)cc1` [Example 124, (S,E)-4-(4-cyanophenoxy)-2-cyclopentyl-N-(4-(methylsulfonyl)but-3-en-2-yl)pyrimidine-5-carboxamide], the concentration for 50% growth inhibition (GI50) in the test with SW480 cells and in the test with HCT 116 cells was more than 10000 nM each time. The IC50 in test [1] (setting [2]) was found to be 14000 nM; on WRN C727 it was 6920 nM.

For the molecule `C[C@@H](/C=C/S(C)(=O)=O)NC(=O)c1cc2c(cc1Oc1ccccc1)CCC2=O` [Example 247, (S,E)-N-(4-(methylsulfonyl)but-3-en-2-yl)-3-oxo-6-phenoxy-2,3-dihydro-1H-indene-5-carboxamide], the GI50 in the test on SW480 cells is more than 10000 nM; in the test on HCT 116 cells, 6500 nM. The IC50 in test [1] was 8500 nM; at WRN C727, 30000 nM.

Regarding `C[C@@H](/C=C/S(C)(=O)=O)NC(=O)c1cnc(C23CC(C2)C3)nc1Oc1ccccc1` [Example 222, (S,E)-2-(bicyclo[1.1.1]pentan-1-yl)-N-(4-(methylsulfonyl)but-3-en-2-yl)-4-phenoxypyrimidine-5-carboxamide], the 50% growth inhibitory concentration (GI50) in the test with SW480 cells was more than 15000 nM; in the test with HCT 116 cells, 133 nM. Besides, the IC50 in test [1] (setting [2]) is 444 nM; at WRN C727 it was 1300 nM.

With `CS(=O)(=O)/C=C/[C@@H](NC(=O)c1cnc(CC(F)(F)F)nc1Oc1ccccc1)C1CC1` [Example 261, (S,E)-N-(1-cyclopropyl-3-(methylsulfonyl)allyl)-4-phenoxy-2-(2,2,2-trifluoroethyl)pyrimidine-5-carboxamide], the concentration for 50% growth inhibition (GI50) in the test with SW480 cells came out at 38000 nM; with HCT 116 cells, 350 nM. Also, the IC50 in test [1] (setting [2]) was found to be 880 nM; at WRN C727, 1790 nM.

As to `CS(=O)(=O)/C=C/[C@@H](NC(=O)c1cnc(C2CC2)nc1Oc1ccccc1)C1CCC1` [Example 29, (S,E)-N-(1-cyclobutyl-3-(methylsulfonyl)allyl)-2-cyclopropyl-4-phenoxypyrimidine-5-carboxamide], the GI50 in the test with SW480 cells is 37400 nM; with HCT 116 cells it was 165 nM. The IC50 was 645 nM in test [1] (setting [2]) and 1680 nM on WRN C727.

In the case of `C[C@@H](/C=C/S(C)(=O)=O)NC(=O)c1cnc(CC2CCC2)nc1Oc1ccccc1` [Example 53, (S,E)-2-(cyclobutylmethyl)-N-(4-(methylsulfonyl)but-3-en-2-yl)-4-phenoxypyrimidine-5-carboxamide], the GI50 was more than 10000 nM in the test with SW480 cells and 970 nM with HCT 116 cells. The IC50 was determined as 3600 nM in test [1] (setting [2]) and 14500 nM on WRN C727.

In the case of `C[C@@H](/C=C/S(C)(=O)=O)NC(=O)c1cnc([C@H]2C[C@@H](C)C2)nc1Oc1ccccc1` (single isomer, unassigned) [Example 46], the GI50 with SW480 cells was more than 11900 nM; with HCT 116 cells it was 124 nM. Also, the IC50 is 287 nM in test [1] (setting [2]) and 990 nM at WRN C727.

Regarding `CS(=O)(=O)/C=C/[C@@H](NC(=O)c1cnc(C2CC2)nc1Oc1ccccc1)C1CCOCC1` [Example 33, (S,E)-2-cyclopropyl-N-(3-(methylsulfonyl)-1-(tetrahydro-2H-pyran-4-yl)allyl)-4-phenoxypyrimidine-5-carboxamide], the GI50 in the test with SW480 cells was more than 100000 nM; in the test on HCT 116 cells, 1300 nM. Further, the IC50 was found to be 2500 nM in test [1] (setting [2]) and 4640 nM on WRN C727.

As to `C=C(C#N)CNC(=O)c1cnc(C(C)(F)F)nc1Oc1ccccc1` [Example 271, N-(2-cyanoallyl)-2-(1,1-difluoroethyl)-4-phenoxypyrimidine-5-carboxamide], the figures for the GI50 in the test with SW480 cells and in the test on HCT 116 cells were 12000 nM and 397 nM, respectively. Also, the IC50 in test [1] (setting [2]) was determined as 986 nM; at WRN C727, 17400 nM.

As for `CC(C)c1ncc(C(=O)N[C@H](/C=C/S(C)(=O)=O)C2CC2)c(Oc2ccccc2)n1` [Example 16, (S,E)-N-(1-cyclopropyl-3-(methylsulfonyl)allyl)-2-isopropyl-4-phenoxypyrimidine-5-carboxamide], the figures for the GI50 in the test with SW480 cells and in the test on HCT 116 cells were 24300 nM and 85 nM, respectively. The IC50 was determined as 180 nM in test [1] (setting [2]) and 650 nM on WRN C727.

Turning to `CC(C)Cc1ncc(C(=O)N[C@@H](C)/C=C/S(C)(=O)=O)c(Oc2ccccc2)n1` [Example 214, (S,E)-2-isobutyl-N-(4-(methylsulfonyl)but-3-en-2-yl)-4-phenoxypyrimidine-5-carboxamide], the concentration for 50% growth inhibition (GI50) in the test on SW480 cells is more than 19500 nM; with HCT 116 cells, 2470 nM. For the same molecule, the IC50 in test [1] (setting [2]) was 10000 nM; on WRN C727, more than 100000 nM.

With `CS(=O)(=O)/C=C1/CCN(C(=O)c2cnc(C3CC3)nc2Oc2ccccc2)C1` [Example 26, (2-cyclopropyl-4-phenoxy-pyrimidin-5-yl)-[(3Z)-3-(methylsulfonylmethylene)pyrrolidin-1-yl]methanone], the GI50 in the test on SW480 cells worked out at 54000 nM; with HCT 116 cells it was 18000 nM. The IC50 in test [1] is 103000 nM; on WRN C727, more than 100000 nM.

Turning to `C[C@@H](/C=C/S(C)(=O)=O)NC(=O)c1cnc(C2(O)CCCC2)nc1Oc1ccccc1` [Example 216, (S,E)-2-(1-hydroxycyclopentyl)-N-(4-(methylsulfonyl)but-3-en-2-yl)-4-phenoxypyrimidine-5-carboxamide], the results for the 50% growth inhibitory concentration (GI50) in the test on SW480 cells and in the test on HCT 116 cells were more than 10000 nM and 2200 nM, respectively. The IC50 in test [1] (setting [2]) was determined as 7740 nM; on WRN C727, 13800 nM.

`CC(F)(F)c1ccc(C(=O)N[C@H](/C=C/S(C)(=O)=O)C2CC2)c(Oc2ccccc2)n1` [Example 233, (S,E)-N-(1-cyclopropyl-3-(methylsulfonyl)allyl)-6-(1,1-difluoroethyl)-2-phenoxynicotinamide]: the values for the GI50 with SW480 cells and with HCT 116 cells were 17000 nM and 19.9 nM, respectively. Also, the IC50 in test [1] (setting [2]) stood at 72 nM; on WRN C727, 480 nM.
